Measured values published in patent EP4813993A1, “COMPOUND, PREPARATION METHOD THEREFOR, AND USE THEREOF” (Sichuan Kelun Pharmaceutical Research Institute Co., Ltd., priority 2023, dated 2025).

Experiments:
[1] = Tissue distribution study (dorsal root ganglia) in ICR mice; assay type: in vivo; settings: male, mouse, oral administration 20 mg/kg
Procedure: Experimental Example 4: Tissue distribution study of compounds in ICR mice
Experimental animals: ICR mice, male, 6-8 weeks old.
(§1) Compound preparation: 5% (final preparation volume) of DMSO was added to dissolve the test compound, and then 10% (final preparation volume) of Cremophor EL and 85% Saline were sequentially added.
Experimental design: The test compounds were administered to ICR mice as a single dose via oral administration (20 mg/kg; n = 3, 3 time points). Blood samples were collected at 0.25 h, 2 h, and 12 h after oral administration, followed by sacrifice of the animals. Dorsal root ganglia (DRG) were collected, rinsed with ice-cold normal saline to remove residual blood, blotted dry with absorbent paper, and stored at -70 °C for analysis.
Sample test: The concentrations of the compound drugs in dorsal root ganglia were determined by the LC-MS/MS method.

incision pain model = experiment: Incision pain model in SD rats, Von Frey test; assay type: in vivo
Procedure: Experimental Example 7: Pharmacodynamic effect study of compounds in incision pain model in SD rats
Experimental animals: SD rats, male, 180-220 g.
as §1
A plantar incision pain model was established in rats via surgery before the administration and test. Rats were placed in an anesthesia induction chamber and given 3%-4% isoflurane for anesthesia induction. After the anesthesia induction, a breathing mask was applied, and the isoflurane concentration was adjusted to 1%-2% to prevent the rats from suffering pain during the surgery. Each rat was placed in a supine position, and the surgical site was disinfected with alcohol and iodophor. Under sterile conditions, a 0.5 cm longitudinal incision was made on the left hind paw surface, 0.2 cm away from the heel, extending toward the toes. The skin and fascia were incised; the plantar muscle was separated, slightly lifted, and longitudinally incised. The skin was then sutured with 5-0 sutures and disinfected.
(§2) 2. Administration and test
The Von Frey test was performed once before the surgery. On the second day after animal modeling, the test was repeated, and animals meeting the baseline requirements were selected for enrollment. The animals were randomly divided into 6 groups based on the 50% PWT values, with 10 animals per group. Administration was performed under a double-blind test protocol. The 50% PWT of the animals was measured separately before administration (baseline) and at 0.5 h, 2 h, 4 h, 6 h, or 8 h after administration, and a single dose was administered. The model control group was given normal saline, while the compound groups were given the compounds according to the administration doses in the table below.

[2] = test system: spinal nerve ligation model (SNL); experiment: Rat spinal nerve ligation model (SNL), Von Frey test; assay type: in vivo, SD rats; settings: for PWT 50% value (g) Post-surgery, Preadministration / PWT 50% value (g) Pre-surgery / PWT 50% value (g) Time 0.5 h / PWT 50% value (g) Time 2 h / PWT 50% value (g) Time 4 h / PWT 50% value (g) Time 6 h / PWT 50% value (g) Time 8 h / PWT 50% value (g) AUC0-8h: SD rats SNL, Mean + SEM, n = 10; for PWT 50% value (g) Post-surgery, Preadministration: baseline before administration; for PWT 50% value (g) Pre-surgery: baseline before surgery; for PWT 50% value (g) Time 0.5 h: 0.5 h after administration; for PWT 50% value (g) Time 2 h: 2 h after administration; for PWT 50% value (g) Time 4 h: 4 h after administration; for PWT 50% value (g) Time 6 h: 6 h after administration; for PWT 50% value (g) Time 8 h: 8 h after administration
Procedure: Experimental Example 8: Pharmacodynamic effect study of compounds in rat spinal nerve ligation model (SNL) Experimental animals: SD rats, male, 180-220 g.
as §1
SD rats were anesthetized with isoflurane via inhalation. Each rat was placed in a prone position, and the hair at the surgical site was shaved locally. The surgical site was disinfected with alcohol and iodophor. Under sterile conditions, a 3-4 cm longitudinal incision was made at the level of the lower lumbar/upper sacrum to expose the left paravertebral muscles. Using small sharp-blunt scissors, the paravertebral muscles were bluntly dissected, and the transverse process of L6 was excised. The L4 and L5 spinal nerves were isolated and exposed, and the L5 spinal nerve was ligated with 6-0 silk sutures. The surgical wound was treated with ceftriaxone for anti-inflammation and infection prevention. The muscles and skin were sutured layer by layer, followed by disinfection with iodophor. After the surgery, the animals were placed on a warm electric blanket for heat preservation and returned to the cages for rearing after complete recovery from anesthesia. Postoperative behavioral observations were performed.
as §2
The Von Frey test was performed once before the surgery. On the 5th and 6th days after surgery, paw-lifting training was performed once each day. Animals with a baseline of 2-5 g were selected for enrollment and grouped based on the 50% PWT values, with 10 animals per group. The next day, a single dose was administered in a blinded manner. The 50% PWT of the animals was measured separately before administration (baseline) and at 0.5 h, 2 h, 4 h, 6 h, or 8 h after administration. The model control group was given normal saline, while the compound groups were given the compounds according to the administration doses in the table below.

formalin pain model = experiment: Rat formalin pain model; assay type: in vivo, SD rats; settings: for Number of pain responses 0 min / Number of pain responses 10 min / Number of pain responses 15 min / Number of pain responses 30 min / Number of pain responses 40 min / Number of pain responses 50 min / Number of pain responses 60 min: SD rats, Mean + SD, n = 10
Summary of the method: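 Male SD rats (180-200 g, n=10/group) dosed 0, 60 or 120 min before 50 µL 5% formalin into right plantar region. Pain responses counted for 1 min every 5 min over 60 min; inhibition rate relative to vehicle control group.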

[3] = 50 mg/kg p.o. 120 min before 5% formalin
[4] = 125 mg/kg p.o. 120 min before 5% formalin

Work on `COc1c(C2CC(C)(C(F)(F)F)SC2C(=O)Nc2ccnc(C(N)=O)c2)ccc(F)c1F` (single isomer, unassigned) [Compound 139-A, 4-(3-(3,4-difluoro-2-methoxyphenyl)-5-methyl-5-(trifluoromethyl)tetrahydrothiophene-2-carboxamido)picolinamide] yielded a concentration at 0.25 h ([1]; Time 0.25 h) of 1920 ng/g, a concentration at 2 h ([1]; Time 2 h) of 9380 ng/g and a concentration at 12 h ([1]; Time 12 h) of 2600 ng/g. For the same compound, the “analgesic activity compared with VX-548” value (incision pain model; SD rats incision pain model, at the same dose) was “better analgesic activity than VX-548”, the “PWT 50% value (g) Post-surgery, Preadministration” value (shortened to “PWT 50% value (g) Post-surgery”) (incision pain model; SD rats, 125 mg/kg group, baseline before administration, Mean + SEM, n = 10) was 3.95 ± 1.12 g and the “PWT 50% value (g) Pre-surgery” value (incision pain model; SD rats, 125 mg/kg group, baseline before surgery, Mean + SEM, n = 10) was 14.4 ± 1.27 g. For the same compound, the “PWT 50% value (g) Time 0.5 h” value (incision pain model; SD rats, 125 mg/kg single dose, 0.5 h after administration, Mean + SEM, n = 10) was 7.46 ± 3.86 g, the “PWT 50% value (g) Time 2 h” value (incision pain model; SD rats, 125 mg/kg single dose, 2 h after administration, Mean + SEM, n = 10) was 10.11 ± 3.83 g and the “PWT 50% value (g) Time 6 h” value (incision pain model; SD rats, 125 mg/kg single dose, 6 h after administration, Mean + SEM, n = 10) was 6.28 ± 2.28 g. The “PWT 50% value (g) Time 8 h” value (incision pain model; SD rats, 125 mg/kg single dose, 8 h after administration, Mean + SEM, n = 10) was 6.29 ± 2.6 g, the “PWT 50% value (g) AUC0-8h” value (incision pain model; SD rats, 125 mg/kg single dose, Mean + SEM, n = 10) was 60.47 ± 11.72 g and the dose-effect relationship (incision pain model; rat incision pain model) was “relatively good dose-effect relationship”. For the same compound, the “PWT 50% value (g) Post-surgery” value ([2]; 50 mg/kg group) was 2.68 ± 1.05 g, the “PWT 50% value (g) Pre-surgery” value ([2]; 50 mg/kg group) was 14.94 ± 2.38 g and the “PWT 50% value (g) Time 0.5 h” value ([2]; 50 mg/kg single dose) was 5.78 ± 2.76 g. The “PWT 50% value (g) Time 2 h” value ([2]; 50 mg/kg single dose) was 8.76 ± 2.47 g, the “PWT 50% value (g) Time 4 h” value ([2]; 50 mg/kg single dose) was 7.73 ± 4.32 g and the “PWT 50% value (g) Time 6 h” value ([2]; 50 mg/kg single dose) was 4.9 ± 1.61 g. For the same compound, the “PWT 50% value (g) Time 8 h” value ([2]; 50 mg/kg single dose) was 3.57 ± 1.44 g, the “PWT 50% value (g) AUC0-8h” value ([2]; 50 mg/kg single dose) was 50.59 ± 15.71 g and the “PWT 50% value (g) Post-surgery” value ([2]; 125 mg/kg group) was 2.68 ± 1 g. The “PWT 50% value (g) Pre-surgery” value ([2]; 125 mg/kg group) was 13.83 ± 3.18 g, the “PWT 50% value (g) Time 0.5 h” value ([2]; 125 mg/kg single dose) was 6.96 ± 3.34 g and the “PWT 50% value (g) Time 2 h” value ([2]; 125 mg/kg single dose) was 9.61 ± 3.73 g. The “PWT 50% value (g) Time 4 h” value ([2]; 125 mg/kg single dose) was 7.26 ± 3.19 g, the “PWT 50% value (g) Time 6 h” value ([2]; 125 mg/kg single dose) was 5.01 ± 1.63 g and the “PWT 50% value (g) Time 8 h” value ([2]; 125 mg/kg single dose) was 3.88 ± 1.67 g. For the same compound, the “PWT 50% value (g) AUC0-8h” value ([2]; 125 mg/kg single dose) was 52.87 ± 15.06 g, the dose-effect relationship ([2]; rat SNL model) was “relatively good dose-effect relationship” and the “differences compared with the model group” value ([2]; rat SNL model, all time points) was “significant differences compared with the model group at all time points”. The “Number of pain responses 0 min” value (formalin pain model; [3]) was 35.6±6.7, the “Number of pain responses 10 min” value (formalin pain model; [3]) was 1.7±2.5 and the “Number of pain responses 15 min” value (formalin pain model; [3]) was 6.8±3.9. The “Number of pain responses 30 min” value (formalin pain model; [3]) was 15.1±4.4, the “Number of pain responses 40 min” value (formalin pain model; [3]) was 12.7±5.9 and the “Number of pain responses 50 min” value (formalin pain model; [3]) was 6.1±5.2. The “Number of pain responses 60 min” value (formalin pain model; [3]) was 2.7±2.6, the “Number of pain responses 0 min” value (formalin pain model; [4]) was 25.5±13.6 and the “Number of pain responses 10 min” value (formalin pain model; [4]) was 1.1±1.1. The “Number of pain responses 15 min” value (formalin pain model; [4]) was 4.3±2.7, the “Number of pain responses 30 min” value (formalin pain model; [4]) was 11.7±6.3 and the “Number of pain responses 40 min” value (formalin pain model; [4]) was 4.8±3.9. The “Number of pain responses 50 min” value (formalin pain model; [4]) was 1.8±1.8, the “Number of pain responses 60 min” value (formalin pain model; [4]) was 1.8±1.2 and the dose-effect relationship (formalin pain model; rat formalin pain model) was “relatively good dose-effect relationship”. The “analgesic activity in the first and second phases” value (formalin pain model; rat formalin pain model, first phase immediately after injection, second phase about 15-20 min after) was “significant analgesic activity in both the first and second phases”.
